Measured values: patent US9481662B2, “Seriniquinones, melanoma-specific anticancer agents” (The Regents of the University of California, priority 2012, dated 2016)
Read-outs that look alike come from different tables or passages of the source.

How the values were obtained:
[1] = test system: NCI-60 cell line; test: NCI-60 cell line screen; assay type: cell-based; details: Homo sapiens; mean over NCI-60 panel
Experimental: (§1) This was further supported by the fact that 1 enhanced activity in melanoma cell lines with maximum activity against MALME-3M cells (GI50 value of 60 nM). With this in hand, chemical biological methods were applied to further probe this biological response.

[2] = test system: HCT-116 cells; test: Confocal microscopy subcellular localization; assay type: cell-based, human; details: confocal imaging with counterstains
Experimental: Confocal studies were conducted on a LSM 710 inverted confocal microscope (Zeiss) with scanning module with 3 detection channels, Plan-Apochromat 63×/1.4 na objective, diode laser (405 nm, CW pulsed, 30 mW), Ar-laser (458 nm, 488 nm, 514 nm, 25 mW), HeNe-laser (543 nm, 1 mW) and HeNe-laser (633 nm, 5 mW). For all procedures, cells were seeded 24 h prior to treatment, to allow for adequate attachment to the well or flask bottom. Cells were plated in glass-bottom dishes (MatTek Corporation) for microscopic analyses at 1×10^5 cells/mL. Compounds were added to cells under 1 mL of media from […] such that the DMSO content remained under 0.1%. […]
Colocalization studies were conducted by treating cells (HCT-116 or MALME-3M) at a density of 1×10^5 cells/cm^2 in a 35 mm glass-bottom dish (MatTek Corporation). […] After 30 min, cells were washed PBS (4×1 mL) and immediately analyzed by confocal microscope. […] The localization of seriniquinone (1) was acquired by red fluorescence with emission at 550-631 nm, while the ER-tracker was acquired by blue florescence with emission at 406-450 nm. […] After 15 min, cells were washed PBS (4×1 mL) and immediately analyzed by confocal microscope. […] The localization of seriniquinone (1) was acquired by red fluorescence with emission at 550-631 nm, while the ER-tracker was acquired by blue florescence with emission at 415-530 nm.

[3] = test system: HCT-116 cells; test: Cell cycle and DNA fragmentation analysis (FACS / ImageStream); assay type: cell-based, human
Experimental: Cell cycle was analyzed by the ImageStream® cell analysis system (Amnis). Briefly, HCT-116 cells (1×10^5 cells/mL) were seeded in 24-well plates, and 24 h later, 0.3 μM 1, 3 μM 1, 30 μM 1 or 17 μM etoposide (positive control) or 1% DMSO (negative control) was added to the cultures. After 18 h or 24 h incubation, cells were recovered by treatment with 0.05% trypsin-EDTA solution (GIBCO-BRL). An 100 μL aliquot of these cells were incubated for 30 min in the dark with a hypotonic solution containing 50 μg/mL propidium iodide, 0.1% sodium citrate, and 0.1% Triton X-100. Fluorescence was measured and DNA fragmentation and cell cycle were analyzed using ModFit LT for Win32 version 3.1.

[4] = test system: DNA; test: In vitro DNA fragmentation assays; assay type: biochemical
[5] = test system: DCD-1L; test: Covalent labeling of DCD-1L peptide (fluorescent band on SDS-PAGE); assay type: binding, human; details: 50 μM; for covalent labeling of DCD-1L: 37° C., 24 h; for fluorescent labeling of DCD-1L fragment: PBS pH 7.2, 5% DMSO, 23° C., 24 h (FIG. 5E)
Description: FIGS. 5A-5E: Seriniquinone (1) targets dermcidin (DCD). […] Sequence listing (FIG. 5B): […] (SEQ ID NO:3); […] (SEQ ID NO:4).
The reactivity between 1 and DCD was then examined. […] These studies now provided initial support for the formation of a unique trimeric covalent adduct, compound 15, between 1, DCD and targeted proteins such as GADPH.

[6] = test system: MALME-3M cells; test: NCI-60 cell line screen, melanoma line MALME-3M; assay type: cell-based; details: Homo sapiens, maximum activity in the panel
Experimental: as §1

[7] = test system: HCT-116 cells; test: Cytotoxicity analysis (MTT/MTS) in HCT-116 colon carcinoma cells; assay type: cell-based, human; details: for IC50: Homo sapiens
Description: Fortunately, 1 was fluorescent with excitation maxima at 250 nm (ε=20,800 cm^−1M^−1), 289 nm (ε=24,000 cm^−1M^−1) and 342 nm (ε=6900 cm^−1M^−1) and a broad emission from 490-680 nm. Using confocal microscopy, red and green fluorescence from 1 appeared in HCT-116 cells within minutes of addition (FIG. 3A). […] Time course confocal imaging studies were then combined with conventional activity MTT assays^6 to provide a detailed correlation between cellular localization and cytostatic activity.
HCT-116 colon carcinoma cells were plated in 96-well plates at 2.5×10^4 cells/well. After 24 h, the cultures were treated with a single concentration seriniquinone (1) within the range of 0.02-20.0 μM, etoposide (positive control) in the range of 0.05-50 μM or 1% DMSO (negative control). The cells were incubated for either 24 h, 48 h or 72 h. At the end of the incubation period, cultures were added with 3-(4,5-dimethylthiazol-2-yl)-5-(3-carboxymethoxyphenyl)-2-(4-sulfophenyl)-2H-tetrazolium (MTS) for 3 h. Cell viability was quantified by the ability of living cells to reduce the yellow MTS dye to a purple formazan product. Time course experiments were also conducted in HCT-116 cells. Cells were exposed to 1 over short periods (1 h, 3 h, 6 h, and 9 h) followed by incubation in drug-free media to complete a total of 24 h incubation before addition of MTS.

[8] = test system: HCT-116 cells; test: Western blot analysis of cell cycle, apoptotic and autophagy markers; assay type: cell-based, human
Experimental: HCT-116 cells (1×10^6 cells/mL) were seeded in 75 cm^2 cell culture flasks and, 24 h later, treated with 3 μM 1, 30 μM 1, 17 μM etoposide (positive control), or 0.3% DMSO (negative control). After 24 h incubation, cells were washed in PBS, harvested and lysed in RIPA buffer. Protein extracts were quantified by an adapted micro-method of the Lowry assay using the DC Protein Assay kit (BioRad Laboratories). Equal amounts of protein (30 μg) from each treatment were fractionated using SDS-PAGE 5-15% gel and transferred to a PVDF membrane (BioRad Laboratories). The membranes were incubated overnight at 4° C. with primary antibodies for caspase-3, cleaved caspase-3, caspase 7, cleaved caspase-7, caspase-9, cleaved caspase-9, PARP, cleaved PARP, cyclin A, cyclin B1, cyclin D1, cyclin D3, cyclin D3, cyclin E1, cyclin E2, LC3A, LC3B or dermcidin (Santa Cruz Biotech). β-actin (Abcam) was used to normalize protein loading. After washing with TBS containing 0.1% Tween-20, the membranes were incubated with the appropriate secondary antibody alkaline phosphatase conjugate (Cell Signaling Technology Inc.), followed by BCIP/NBT color development substrate (Perkin-Elmer).

[9] = Stability on storage / in solution; assay type: physicochemical
[10] = HCT-116, Table 1, read-out: HCT 116 IC50

With `O=c1c2ccccc2c(=O)c2c1sc1c(=O)c3ccccc3c(=O)c12` [Compound 1, dinaphtho[2,3-b:2′,3′-d]thiophene-5,7,12,13-tetraone] the GI50 [1] was 910 nM, the LC50 (concentration giving 50% cell kill) [1] was 18600 nM and the subcellular localization [2] was “appeared soon after treatment in the ER”. The “DNA fragmentation (cells with subdiploid DNA)” value [3] was “concentration dependent DNA fragmentation”, the “cell cycle phase of remaining cells” value [3] was “S to G2 phase” and the “DNA fragmentation in vitro” value [4] was “failed to induce DNA fragmentation”. For the same compound, the “covalent labeling of DCD-1L” value [5] was “covalently label DCD-1L”, the “fluorescent labeling of DCD-1L fragment” value [5] was “fluorescent bands corresponding to DCD-1L” and the GI50 [6] was 60 nM. For the same compound, the IC50 [7, 10] was 350 nM, the IC50 ([7]; HCT-116 cells treated over 24 h period, MTT assay, read-out: IC50) was 640 ± 60 nM and the “cleavage of caspases and PARP” value ([8]; HCT-116 cells) was “induced cleavage of caspases 3, 7 and 9 PARP”. The “induction of autophagy (LC3A/LC3B conversion, Western blot)” value ([8]; HCT-116 cells, 24 h) was “induced autophagy” and the cyclin expression ([8]; HCT-116 treated cells) was “strong reduction in the expression of the cyclins D1, D2 and D3”.
In the case of `Oc1c2ccccc2c(O)c2c1sc1c(O)c3ccccc3c(O)c12` [Compound S23], the stability in solution ([9]; in solution) is reported as “oxidizes rapidly back to S22a in solution”.
For `O=C(O)CCc1ccc2c(=O)c3c(sc4c(=O)c5ccccc5c(=O)c43)c(=O)c2c1` [acid 11, 3-(5,7,12,13-Tetraoxo-5,7,12,13-tetrahydrodinaphtho[2,3-b:2′,3′-d]-thiophen-3-yl)-propanoic acid], the “covalent labeling of DCD-1L” value [5] was “covalently label DCD-1L”.
In the case of `CC(C)=CCCc1ccc2c(=O)c3c(sc4c(=O)c5ccccc5c(=O)c43)c(=O)c2c1` [alkene 10, 3-(4-Methylpent-3-en-1-yl)dinaphtho[2,3-b:2′,3′-d]thiophene-5,7,12,13-tetraone], the “covalent labeling of DCD-1L” value [5] is reported as “covalently label DCD-1L”, the “fluorescent labeling of DCD-1L fragment” value [5] is reported as “fluorescent bands corresponding to DCD-1L” and the “storage stability of pure material” value ([9]; 1 month at −20° C.) is reported as “significant decomposition”.
In the case of `O=c1c2ccccc2c(=O)c2sc3c(=O)c4ccccc4c(=O)c3sc12` [p2], the “HCT 116 IC50, μM” value ([7]; Table 1) is reported as “NSA”.
`Nc1ccc2c(=O)c3c(sc4c(=O)c5ccc(N)cc5c(=O)c43)c(=O)c2c1` [p4] gave an IC50 [7, 10] of 2200 nM.
Work on `O=c1c2cc(O)ccc2c(=O)c2c1sc1c(=O)c3ccc(O)cc3c(=O)c12` [p6] yielded an IC50 [7, 10] of 1900 nM.
In the case of `O=c1c2cc(Cl)ccc2c(=O)c2c1sc1c(=O)c3ccc(Cl)cc3c(=O)c12` [p9], the IC50 [7, 10] is reported as 550 nM.
`O=C(Nc1ccc2c(=O)c3c(sc4c(=O)c5ccc(NC(=O)C(F)(F)F)cc5c(=O)c43)c(=O)c2c1)C(F)(F)F` [p12] gave an IC50 [7, 10] of 710 nM.
In the case of `CC(=O)Oc1ccc2c(=O)c3c(sc4c(=O)c5ccc(OC(C)=O)cc5c(=O)c43)c(=O)c2c1` [p14], the IC50 [7, 10] is reported as 2100 nM.
Compound `Nc1cccc2c(=O)c3c(sc4c(=O)c5cccc(N)c5c(=O)c43)c(=O)c12` [p20] has an IC50 [7, 10] of 780 nM.
For `O=c1c2cccc(O)c2c(=O)c2c1sc1c(=O)c3c(O)cccc3c(=O)c12` [p21], the IC50 [7, 10] was 700 nM.
Compound `O=C(Nc1cccc2c(=O)c3c(sc4c(=O)c5cccc(NC(=O)C(F)(F)F)c5c(=O)c43)c(=O)c12)C(F)(F)F` [p23] has an IC50 [7, 10] of 78 nM.
